From publication PMC11854273, “Screening of the Antimelanoma Activity of Monoterpenes—In Vitro Experiments on Four Human Melanoma Lines” (Current Issues in Molecular Biology, 2025)
Like-named read-outs stand apart in the source and are kept apart here.

Experiments:
[1] = system: liver cancer cell lines and mouse melanoma B16-F10; parameters: method as in PMID 23453306; conditions: authors' conversion of the μg/mL values; cited from earlier work
[2] = system: malignant melanoma cell lines A375, SK-MEL28, FM55P, FM55M2; test: MTT cell viability assay, four melanoma lines taken together; assay type: cell-based, human; conditions: for IC50: read-out: IC50 range depending on the melanoma cell line; for effect on melanoma cell viability (in words): four melanoma lines
Procedure: (§1) All tested cell lines—the HaCaT cell line model of human keratinocyte cells (density: 1 × 10^4 cells/mL) and four human malignant melanoma lines (density: 2–3 × 10^4 cells/mL, depending on the cell line—were plated on microtiter plates (NEST Biotechnology, Wuxi, China). After a day (24 h) of incubation, the medium was replaced with a fresh medium to which increasing concentrations of the tested substances were added. The experimental steps of the MTT assay were previously described. Each experiment in the MTT assay was performed in triplicate to ensure the repeatability and validity of the results.
(§2) Data were presented as means ± standard errors (SEMs).

[3] = system: human cervical cancer, human lung cancer, monkey kidney cells and mouse macrophages; parameters: method as in doi:10.1590/S0044-59672007000200015; conditions: 200 µg/mL (≈1.5 mM); cited from earlier work
[4] = system: normal human keratinocytes HaCaT; test: MTT cell viability assay, normal keratinocytes; assay type: cell-based; conditions: for IC50: Homo sapiens
Procedure: as §1, §2

A549 line = system: A549 line; parameters: method as in PMID 31202132; conditions: cited from earlier work
[5] = system: mouse melanoma B16(F10) cells; conditions: B16F10; cited from earlier work
[6] = system: FM55P malignant melanoma cell line; test: MTT cell viability assay, FM55P; assay type: cell-based; conditions: Homo sapiens, 72 h
Procedure: as §1, §2

[7] = system: FM55M2 malignant melanoma cell line; test: MTT cell viability assay, FM55M2; assay type: cell-based; conditions: Homo sapiens, 72 h
Procedure: as §1, §2

[8] = system: A375 malignant melanoma cell line; test: MTT cell viability assay, A375; assay type: cell-based; conditions: Homo sapiens
Procedure: as §1, §2

[9] = system: malignant melanoma cell lines A375, SK-MEL28, FM55P, FM55M2; test: LDH cytotoxicity assay, melanoma lines; conditions: 72 h
Procedure: Four malignant melanoma cell lines, FM55P, FM55M2 (ECACC, Public Health England, Porton Down, UK), A375 and SK-MEL28 (ATCC, Manassas, VA, USA) were used. The immortalized human normal keratinocyte (HaCaT; ATCC, Manassas, VA, USA) served as a reference cell line. Of note, the A375 cell line is the original and not a CRISPR-modified version of the cell line, and all the tested cell lines in this study have the BRAF V600E mutation. The experimental cell culture conditions were as follows: 37 °C in a humidified atmosphere of 95% air and 5% CO2. The culture media used were as follows: for A375—DMEM high glucose; for SK-MEL28—EMEM; and for FM55P and FM55M2—RPMI1640 (All from Sigma-Aldrich, St. Louis, MO, USA). Previous publications described in more detail the growth conditions of these cell line cultures.
Specified densities (as above) of all the studied melanoma and normal human cell line were plated on microtiter plates (NEST). […] The LDH test was carried out after 72 h of incubation with the tested terpenes according to the manufacturer’s instructions. A more detailed description of the steps of the LDH test was previously provided.
GraphPad Prism (version 8.0, San Diego, CA, USA) was used for statistical analysis of the data (from the MTT and LDH tests). The analyses were performed with a one-way ANOVA test followed by Tukey’s post hoc test. Data were presented as means ± standard errors (SEMs). The median inhibitory concentration (IC50) values for the tested terpenes were calculated automatically with a computer-assisted log-probit method using an MS Excel spreadsheet, as previously described.

[10] = system: SK-MEL28 malignant melanoma cell line; test: MTT cell viability assay, SK-MEL28; assay type: cell-based; conditions: Homo sapiens
Procedure: as §1, §2

[11] = system: HT29 colon cancer cell line; parameters: method as in PMID 31323842; conditions: cited from earlier work
[12] = system: 4T1 breast cancer cell line; parameters: method as in PMID 32526880, PMID 30733560; conditions: cited from earlier work
[13] = system: H1299 lung cancer cell line; parameters: method as in PMID 32420353; conditions: cited from earlier work
[14] = system: MDA MB-231 breast cancer cell line; parameters: method as in PMID 32526880, PMID 30733560; conditions: cited from earlier work
[15] = system: SW620 colon cancer cell line; parameters: method as in PMID 31323842; conditions: cited from earlier work
[16] = system: A549 lung cancer cell line; parameters: method as in PMID 32420353; conditions: cited from earlier work
MCF-7 breast cancer line = system: MCF-7 breast cancer line; parameters: method as in PMID 32772589; conditions: cited from earlier work
MDA-MB-231 cells = system: MDA-MB-231 cells; parameters: method as in PMID 32772589; conditions: cited from earlier work
[17] = system: Ishikawa cell line, of endometrial cancer; conditions: 24 h of incubation; cited from earlier work
A431 skin cancer line = conditions: A431, MTT assay; cited from earlier work
[18] = system: colo-205 colon cancer cell line; conditions: cited from earlier work
[19] = system: B16-F10 mouse melanoma cell lines; parameters: method as in PMID 22352891; conditions: B16-F10, MTT test, cited from earlier work
[20] = range over the four human melanoma lines, MTT, 72 h
[21] = A549, authors' conversion, read-out: IC50
[22] = FM55P, MTT assay, mean ± SEM, read-out: IC50
[23] = FM55M2, MTT assay, mean ± SEM, read-out: IC50
[24] = A-375, A375, MTT assay, 72 h, mean ± SEM, read-out: IC50
[25] = HaCaT, MTT assay, 72 h, mean ± SEM, read-out: IC50
[26] = SK-MEL-28, SK-MEL28, MTT assay, 72 h, mean ± SEM, read-out: IC50

| Structure (SMILES) | IC50 range depending on the melanoma cell line [2, 20] | concentration significantly affecting viability of normal keratinocytes ([4]; HaCaT, MTT, 72 h) [µM] | concentration with statistically significant cytotoxicity towards melanoma cells [9] | effect on melanoma cell viability (in words) ([2]; MTT, 72 h) | effect on normal keratinocyte cells (in words) ([4]; HaCaT, MTT) | IC50 [6, 22] [µM] | IC50 [7, 23] [µM] | IC50 [8, 24] [µM] | IC50 [2, 20] [µM] | IC50 [4, 25] [µM] | IC50 [10, 26] [µM] | further results |
| --- | --- | --- | --- | --- | --- | --- | --- | --- | --- | --- | --- | --- |
| C=CC(=C)CCC=C(C)C [Myrcene, myrcene] | could not be determined | 3000 |  |  |  |  |  |  |  |  |  | IC50 [1]: 70 to 90 µM; concentration up to which no significant inhibition of melanoma line growth ([2]; MTT, 72 h): up to 5 mM; cytotoxic activity (in words) [3]: no cytotoxic activity |
| Cc1ccc(C(C)C)cc1O [Carvacrol, carvacrol] |  |  | 50 to 650 µM | showed a significant anti-viability effect | did not negatively affect normal human keratinocyte cells |  |  |  |  |  |  | IC50 (A549 line; [21]): ~670 µM; IC50 (A549 line; A549): 100 µg/mL; IC50 [5]: 120 ± 15 µM; IC50 [6]: 60 ± 10 µM; IC50 [7]: 50 µM; IC50 ([8]; A-375, 72 h): 60 µM; IC50 ([2]; Homo sapiens, 72 h): 50 to 60 µM; selectivity index ([2]; SI = IC50 for HaCaT / IC50 for respective melanoma cell line, MTT): above 10; concentration up to which HaCaT viability was not significantly affected ([4]; HaCaT, MTT, 72 h): ≤ 650 µM; IC50 ([4]; HaCaT, 72 h): > 650 µM; IC50 ([10]; SK-MEL-28, 72 h): 60 ± 10 µM |
| CC(C)=CCC/C(C)=C/C=O [Citral, citral] |  |  | above 0.2 mM | showed a significant anti-viability effect | at high concentrations, it had a negative effect on normal keratinocyte cells | 90 ± 10 | 80 | 130 ± 10 | 80 to 130 | 290 ± 10 | 100 ± 10 | IC50 ([11]; HT29, authors' conversion, read-out: IC50): ~143 µM; IC50 ([11]; HT29): 21.77 ± 0.23 µg/mL; IC50 ([12]; 4T1, authors' conversion, read-out: IC50): ~140 µM; IC50 ([12]; 4T1): 21.4 ± 2.82 µg/mL; IC50 ([13]; H1299, authors' conversion, read-out: IC50): ~26 µM; IC50 ([13]; H1299): 4.01 ± 0.30 µg/mL; IC50 ([14]; MDA MB-231, authors' conversion, read-out: IC50): ~135 µM; IC50 ([14]; MDA MB-231): 20.5 ± 1.41 µg/mL; IC50 ([15]; SW620, authors' conversion, read-out: IC50): ~148 µM; IC50 ([15]; SW620): 22.50 ± 2.50 µg/mL; IC50 [16, 21]: ~11 µM; IC50 ([16]; A549): 1.73 ± 0.37 µg/mL; inhibition of HaCaT proliferation ([4]; 0.3 mM, MTT): up to 28%; inhibition of HaCaT proliferation ([4]; highest concentration of 0.4 mM, MTT): approximately 10% |
| CC(C)=CCC/C(C)=C\CO [Nerol, nerol] | could not be determined |  |  | Its effect was not significant |  |  |  |  |  |  |  | concentration significantly affecting viability of melanoma cell lines ([2]; MTT, 72 h): 0.13 to 0.65 mM; concentration significantly affecting viability of normal keratinocytes ([4]; human, 72 h): 650 µM |
| CC(C)=CCCC(C)CCO (stereo not drawn) [Citronellol, citronellol] |  | 1200 to 6000 | above 4.2 mM | showed a significant anti-viability effect |  | 2450 ± 380 | 2170 ± 300 | 3630 ± 560 | 2170 to 4810 | 6270 ± 1150 | 4810 ± 290 | IC50 (MCF-7 breast cancer line): 80 µM; IC50 (MDA-MB-231 cells): 35 µM |
| CC(C)=CCC/C(C)=C/CO [Geraniol, geraniol] |  |  |  | showed a significant anti-viability effect |  | 330 ± 20 | 420 ± 20 | 270 ± 30 | 270 to 440 | > 650 | 440 ± 30 | IC50 [17]: 260 µM; IC50 [5]: 150 ± 19 µM; IC50 (A431 skin cancer line): 98 µM; IC50 [18]: 20 µM |
| C=C(C)CCC[C@H](C)CCO [Rhodinol, rhodinol] | could not be determined | ≥ 4800 |  | did not show any significant activity |  |  |  |  |  |  |  | concentration significantly affecting viability of melanoma cell lines ([2]; MTT, 72 h): ≥ 4.8 mM |
| Cc1ccc(C(C)C)c(O)c1 [Thymol, thymol] |  |  | above 0.03 mM | showed a significant anti-viability effect | at high concentrations, it affects the viability of normal cell lines without cytotoxicity | 460 ± 50 | 530 ± 50 | 480 ± 40 | 460 to 530 | > 1300 | 510 ± 30 | concentration from which cytotoxicity was statistically significant ([9]; SK-MEL28 line): ≥ 30 µM; IC50 ([19]; authors' conversion, read-out: IC50): 400 µM; IC50 [19]: 60.09 µg/mL |
